# Laboratory results taken from patent US20230114241A1, “METHODS OF TREATING EPILEPSY USING THE SAME” (Trevena, Inc., priority 2019, published 2023).
# Target: human sphingosine-1-phosphate receptor 1 (S1P1) (Homo sapiens, UniProt P21453)
# Experiment: Inhibition of cAMP production (HTRF cAMP HiRange), S1P1 CHO-K1 cells
# Assay type: cell-based
# Details: inhibition of cAMP production, S1P1; read-out: hS1P1 CAMP pEC50 (converted)
# How it was run: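 CHO-K1 cells co-expressing human S1P1 (C-terminal ProLink tag) and EA-β-arrestin2, plated overnight; after 30 min compound incubation at 37 °C, intracellular cAMP measured by HTRF TR-FRET following 1 h at room temperature. Values normalized to fingolimod.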
# human sphingosine-1-phosphate receptor 1 (S1P1), sequence (P21453 whole entry): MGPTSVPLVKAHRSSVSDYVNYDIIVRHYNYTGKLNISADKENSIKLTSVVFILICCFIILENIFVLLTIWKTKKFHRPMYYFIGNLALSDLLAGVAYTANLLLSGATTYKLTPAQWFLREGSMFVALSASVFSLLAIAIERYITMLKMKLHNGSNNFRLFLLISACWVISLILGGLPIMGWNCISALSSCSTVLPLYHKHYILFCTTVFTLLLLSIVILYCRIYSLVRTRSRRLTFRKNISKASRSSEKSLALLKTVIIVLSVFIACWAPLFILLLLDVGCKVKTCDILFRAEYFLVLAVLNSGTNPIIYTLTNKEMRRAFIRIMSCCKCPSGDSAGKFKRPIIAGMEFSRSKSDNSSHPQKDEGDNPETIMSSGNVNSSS
row,Structure (SMILES),EC50 [nM]
1,"CC(C)n1nnc2cc(-c3nc(-c4nccn4C)no3)ccc21 [Compound 569, 5-[3-(1-methyl-1H-imidazol-2-yl)-1,2,4-oxadiazol-5-yl]-1-(propan-2-y1)-1H-1,2,3-benzotriazole]",> 316
2,"C=CCNc1ccc(-c2ccc(-c3ccc4c(c3)nnn4C(C)C)cc2)cc1C#N [Compound 508, 4-(allylamino)-4′-(1-isopropyl-1H-benzo[d][1,2,3]triazol-5-yl)-[1,1′-biphenyl]-3-carbonitrile]",> 316
3,"Cc1cccc2oc(-c3ccc4c(c3)nnn4C(C)C)nc12 [Compound 418, 2-(1-isopropyl-1H-benzo[d][1,2,3]triazol-5-yl)-4-methyl-benzo[d]oxazole]",< 316
4,"CC(=O)Nc1ccccc1-c1coc(-c2ccc3c(c2)nnn3C(C)C)n1 [Compound 458, N-(2-{2-[1-(propan-2-yl)-1H-1,2,3-benzotriazol-5-yl]-1,3-oxazol-4-yl}phenyl)acetamide]",> 316
5,"CC(C)n1nnc2cc(-c3noc(-c4ccccc4N)n3)ccc21 [Compound 576, 2-{3-[1-(propan-2-yl)-1H-1,2,3-benzotriazol-5-yl]-1,2,4-oxadiazol-5-yl}aniline]",< 316

# Same assay, conditions: inhibition of cAMP production; potency; read-out: hS1P1 CAMP pEC50 (converted)
row,Structure (SMILES),EC50 [nM]
1,"CC1(C)CC(=O)c2cc(-c3nc(-c4cccnc4)no3)ccc2O1 [Compound 274, 2,2-dimethyl-6-[3-(pyridin-3-yl)-1,2,4-oxadiazol-5-yl]-3,4-dihydro-2H-1-benzopyran-4-one]",> 316
2,"CC(C)n1ncc2cc(-c3nc(-c4ccccc4O)no3)ccc21 [Compound 333, 2-(5-(1-isopropyl-1H-indazol-5-yl)-1,2,4-oxadiazol-3-yl)phenol]",< 316
3,"CC1(C)CCC2(CC1)CC(=O)c1cc(-c3nc(-c4cccnc4)no3)ccc1O2 [Compound 58, 4′,4′-dimethyl-6-[3-(pyridin-3-yl)-1,2,4-oxadiazol-5-yl]-3,4-dihydrospiro[1-benzopyran-2,1′-cyclohexane]-4-one]",> 316
4,"CCC1(CC)CC(=O)c2cc(-c3nc(-c4ccnc(C(F)(F)F)c4)no3)ccc2O1 [Compound 314, 2,2-diethyl-6-(3-(2-(trifluoromethyl)pyridin-4-yl)-1,2,4-oxadiazol-5-yl)chroman-4-one]",> 316
5,"CCC1(CC)CC(=O)c2cc(-c3nc(-c4ccncc4OC)no3)ccc2O1 [Compound 212, 2,2-diethyl-6-(3-(3-methoxypyridin-4-yl)-1,2,4-oxadiazol-5-yl)chroman-4-one]",< 316
6,"O=C1CC2(CCOCC2)Oc2ccc(-c3nc(-c4cccnc4)no3)cc21 [Compound 214, 6-[3-(pyridin-3-yl)-1,2,4-oxadiazol-5-yl]-3,4-dihydrospiro[1-benzopyran-2,4′-oxane]-4-one]",> 316
7,"FC(F)Oc1ccc(-c2noc(-c3ccc4c(c3)nnn4C3CCCC3)n2)cc1 [Compound 80, 1-cyclopentyl-5-{3-[4-(difluoromethoxy)phenyl]-1,2,4-oxadiazol-5-yl}-1H-1,2,3-benzotriazole]",< 316
8,"N#Cc1cc(-c2nc(-c3ccc4c(c3)CCC(=O)N4)no2)ccc1N [Compound 345, 2-amino-5-[3-(2-oxo-1,2,3,4-tetrahydro-quinolin-6-yl)-1,2,4-oxadiazol-5-yl]benzonitrile]",> 316
9,"FC(F)(F)c1cc(Br)ccc1-c1noc(-c2ccc3c(c2)nnn3C2CCCC2)n1 [Compound 114, 5-{3-[4-bromo-2-(trifluoromethyl)phenyl]-1,2,4-oxadiazol-5-yl}-1-cyclopentyl-1H-1,2,3-benzotriazole]",> 316
10,"O=C1CC2(CCCCC2)Oc2ccc(-c3nc(-c4ccncc4)no3)cc21 [Compound 280, 6-[3-(pyridin-4-yl)-1,2,4-oxadiazol-5-yl]-3,4-dihydrospiro[1-benzopyran-2,1′-cyclohexane]-4-one]",> 316
11,"CSc1ccc(-c2nc(-c3ccc4c(c3)nnn4C3CCCC3)no2)cc1 [Compound 237, 3-(1-cyclopentyl-1H-benzo[d][1,2,3]triazol-5-yl)-5-(4-(methyl-thio)phenyl)-1,2,4-oxadiazole]",> 316
12,"CC(C)n1nnc2cc(-c3nc(-c4ccccc4)co3)ccc21 [Compound 294, 5-(4-phenyl-1,3-oxazol-2-yl)-1-(propan-2-yl)-1H-1,2,3-benzotriazole]",> 316
13,"COc1ccccc1-c1noc(-c2ccc3c(c2)nnn3C(C)(C)C)n1 [Compound 207, 1-tert-butyl-5-[3-(2-methoxyphenyl)-1,2,4-oxadiazol-5-yl]-1H-1,2,3-benzotriazole]",< 316
14,"CCC1(CC)CC(=O)c2cc(-c3nc(-c4ccccc4O)no3)ccc2O1 [Compound 187, 2,2-diethyl-6-[3-(2-hydroxyphenyl)-1,2,4-oxadiazol-5-yl]chroman-4-one]",> 316
15,"Cc1ncccc1-c1nc(-c2ccc3c(c2)nnn3C(C)C)no1 [Compound 194, 3-(1-isopropyl-1H-benzo[d][1,2,3]triazol-5-yl)-5-(2-methyl-pyridin-3-yl)-1,2,4-oxadiazole]",> 316
16,"Cc1ccccc1-c1noc(-c2ccc3c(c2)nnn3CC(F)F)n1 [Compound 182, 1-(2,2-difluoroethyl)-5-[3-(2-methylphenyl)-1,2,4-oxadiazol-5-yl]-1H-1,2,3-benzotriazole]",< 316
17,"COc1ccc(-c2cnc(-c3ccc4c(c3)nnn4C(C)C)s2)cc1 [Compound 109, 2-(1-isopropyl-1H-benzo[d][1,2,3]triazol-5-yl)-5-(4-methoxy-phenyl)thiazole]",> 316
18,"CC(C)n1nnc2cc(-c3noc(-c4ccc(F)cc4)n3)ccc21 [Compound 255, 5-(4-fluorophenyl)-3-(1-isopropyl-benzotriazol-5-yl)-1,2,4-oxadiazole]",> 316
19,"N#Cc1cc(-c2nc(-c3ccc4c(c3)CC(=O)N4)no2)ccc1NCC1CC1 [Compound 210, 2-((cyclopropyl-methyl)amino)-5-(3-(2-oxoindolin-5-yl)-1,2,4-oxadiazol-5-yl)benzonitrile]",< 316
20,"C=CCNc1ccc(-c2nc(-c3ccc4[nH]ncc4c3)no2)cc1C#N [Compound 141, 5-(3-(1H-indazol-5-yl)-1,2,4-oxadiazol-5-yl)-2-(allyl-amino)benzonitrile]",< 316
21,"Cc1ccccc1-c1noc(-c2ccc3c(c2)nnn3CC2CC2)n1 [Compound 288, 1-(cyclopropylmethyl)-5-[3-(2-methylphenyl)-1,2,4-oxadiazol-5-yl]-1H-1,2,3-benzotriazole]",> 316
22,"Cc1ccccc1-c1noc(-c2ccc3c(c2)nnn3C2CCCC2)n1 [Compound 175, 1-cyclopentyl-5-[3-(2-methylphenyl)-1,2,4-oxadiazol-5-yl]-1H-1,2,3-benzotriazole]",< 316
23,"CCC1(CC)CC(=O)c2cc(-c3nc(-c4ccc(C(N)=O)cc4)no3)ccc2O1 [Compound 179, 4-(5-(2,2-diethyl-4-oxochroman-6-yl)-1,2,4-oxadiazol-3-yl)benzamide]",< 316
24,"CC(C)Nc1ccc(-c2nc(-c3ccc4c(c3)CC(=O)N4)no2)cc1C#N [Compound 107, 2-(isopropylamino)-5-(3-(2-oxoindolin-5-yl)-1,2,4-oxadiazol-5-yl)benzonitrile]",< 316
25,"CC(C)CCn1nnc2cc(-c3nc(-c4ccccc4)no3)ccc21 [Compound 271, 1-(3-methylbutyl)-5-(3-phenyl-1,2,4-oxadiazol-5-yl)-1H-1,2,3-benzotriazole]",> 316
